From patent publication US20070021405A1, “ARYL- AND HETEROARYLPIPERIDINECARBOXYLATE-DERIVATIVES METHODS FOR THEIR PREPARATION AND USE THEREOF AS FATTY ACID AMIDO HYDROLASE ENZYME INHIBITORS” (SANOFI-AVENTIS, priority 2004, published 2007) come the findings set out here.

Structures are written as SMILES. pIC50: −log10 of the molar value.

The first series concerns the target T1, enzyme FAAH (Fatty Acid Amido Hydrolase) (Mus musculus, UniProt O08914).
T1 construct: The membrane homogenates are prepared at the time of use by homogenization of the tissues; from tissue; host or cells: mouse brain (minus the cerebellum), membrane homogenate
T1 sequence (O08914 1-579): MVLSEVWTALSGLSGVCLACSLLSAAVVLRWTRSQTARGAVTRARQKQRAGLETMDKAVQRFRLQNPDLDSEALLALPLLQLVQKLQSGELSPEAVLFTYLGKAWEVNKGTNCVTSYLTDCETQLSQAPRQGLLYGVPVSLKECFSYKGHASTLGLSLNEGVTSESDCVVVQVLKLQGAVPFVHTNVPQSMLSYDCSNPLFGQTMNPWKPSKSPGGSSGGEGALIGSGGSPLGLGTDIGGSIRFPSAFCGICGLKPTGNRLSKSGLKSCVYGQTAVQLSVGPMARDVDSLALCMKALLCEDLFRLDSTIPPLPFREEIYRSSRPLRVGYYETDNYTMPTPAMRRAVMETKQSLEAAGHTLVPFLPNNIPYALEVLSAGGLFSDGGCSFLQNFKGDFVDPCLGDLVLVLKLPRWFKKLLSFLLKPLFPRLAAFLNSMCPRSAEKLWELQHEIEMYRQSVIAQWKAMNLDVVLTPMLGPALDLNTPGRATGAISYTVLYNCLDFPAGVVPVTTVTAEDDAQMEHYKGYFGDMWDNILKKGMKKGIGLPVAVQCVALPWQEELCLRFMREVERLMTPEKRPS
In words: radioenzymatic test of FAAH inhibition: hydrolysis of ((1-3H)ethanolamine)-anandamide by mouse brain membrane homogenates. The class given is biochemical. The note with it: mouse brain membrane homogenate, 10 μM anandamide, 15 minutes at 25° C.; read-out: IC50 (concentration which inhibits the control enzymatic activity of FAAH by 50%). The protocol: The compounds of the invention have formed the subject of pharmacological trials which make it possible to determine their inhibitory effect on the enzyme FAAH (Fatty Acid Amido Hydrolase).
Thus, mouse brains (minus the cerebellum) are removed and stored at −80° C. The membrane homogenates are prepared at the time of use by homogenization of the tissues with a Polytron in a 10 mM Tris-HCl buffer (pH 8.0) comprising 150 mM NaCl and 1 mM EDTA. The enzymatic reaction is subsequently carried out in 70 μl of buffer comprising bovine serum albumin free from fatty acids (1 mg/ml). The test compounds, at various concentrations, the ((1-^3H)ethanolamine)-anandamide (specific activity of 15-20 Ci/mmol), diluted to 10 μM with non-radiolabelled anandamide, and the membrane preparation (400 μg of frozen tissue per assay) are successively added. After 15 minutes at 25° C., the enzymatic reaction is halted by addition of 140 μl of chloroform/methanol (2:1). The mixture is stirred for 10 minutes and is then centrifuged at 3500 g for 15 minutes. An aliquot (30 μl) of the aqueous phase comprising the (1-^3H)ethanolamine is counted by liquid scintillation.
Turning to `CNC(=O)COC(=O)N1CCC(O)(c2ccc(-c3ccc(Cl)c(Cl)c3)cc2)CC1` [Compound No. 40, 2-(Methylamino)-2-oxoethyl 4-(3′,4′-dichlorobiphenyl-4-yl)-4-hydroxypiperidine-1-carboxylate], the pIC50 is 7.01.

Consider `CCOc1ccc(-c2ccc(C3(O)CCN(C(=O)OCC(=O)NC)CC3)cc2)cc1` [compound 39, 2-(methylamino)-2-oxoethyl 4-(4′-ethoxybiphenyl-4-yl)-4-hydroxypiperidine-1-carboxylate], for which the pIC50 is 7.02.

The next series deals with male OF1 mice. In words: test for analgesia: abdominal tractions induced by PBQ (phenylbenzoquinone) i.p. The note with it: 3 mg/kg p.o., administered 60 minutes before PBQ. The class given is in vivo, mouse. The procedure:
The in vivo activity of the compounds of the invention was evaluated in a test for analgesia.
Thus, the intraperitoneal (i.p.) administration of PBQ (phenylbenzoquinone, 2 mg/kg in a 0.9% sodium chloride solution comprising 5% of ethanol) to male OF1 mice weighing 25 to 30 g causes abdominal tractions, on average 30 twisting or contracting motions during the period from 5 to 15 minutes after injection. The test compounds are administered, orally (p.o.) or intraperitoneally (i.p.) in suspension in 0.5% Tween 80, 60 minutes or 120 minutes before the administration of PBQ. Under these conditions, the most powerful compounds of the invention reduce by 35 to 70% the number of tractions induced by the PBQ, within a range of doses of between 1 and 30 mg/kg.
`CNC(=O)COC(=O)N1CCC(CCc2ccc(Cl)cc2)CC1` [compound 57, 2-(methylamino)-2-oxoethyl 4-[2-(4-chloro-phenyl)ethyl]piperidine-1-carboxylate]: the “reduction of the number of tractions induced by the PBQ” value turned out to be 37%.

The series is the same for the next values; noted with them: 3 mg/kg p.o., administered 120 minutes before PBQ.
As to `CNC(=O)COC(=O)N1CCC(CCc2ccc(Cl)cc2)CC1` [compound 57, 2-(methylamino)-2-oxoethyl 4-[2-(4-chloro-phenyl)ethyl]piperidine-1-carboxylate], the “reduction of the number of tractions induced by the PBQ” value worked out at 74%.

System in a further series: not given
Assay: not given
Conditions: not given
What is called melting point is the temperature of the solid-liquid transition. As to `CNC(=O)COC(=O)N1CCC(CCc2nccc3ccccc23)CC1` [Compound No. 74, 2-(Methylamino)-2-oxoethyl 4-(2-(isoquinolin-1-yl)ethyl)-1-piperidinecarboxylate], the melting point lay within 126 to 128 °C. `CNC(=O)COC(=O)N1CCC(n2cnc(-c3ccccc3)c2)CC1` [Compound No. 14, 2-(Methylamino)-2-oxoethyl 4-(4-phenyl-1H-imidazol-1-yl)piperidine-1-carboxylate]: the melting point lay within 192 to 194 °C. Same read-out and setting: with `CNC(=O)COC(=O)N1CCC(O)(c2ccc(-c3ccc(Cl)c(Cl)c3)cc2)CC1` [Compound No. 40, 2-(Methylamino)-2-oxoethyl 4-(3′,4′-dichlorobiphenyl-4-yl)-4-hydroxypiperidine-1-carboxylate] the figure was 156 to 158 °C; with `CNC(=O)COC(=O)N1CCC(O)(c2ccc(Br)cc2)CC1` [Compound No. 32, 2-(Methylamino)-2-oxoethyl 4-(4-bromophenyl)-4-hydroxypiperidine-1-carboxylate], 57 to 60 °C; with `CNC(=O)COC(=O)N1CCC(CC#Cc2ccc(Cl)cc2)CC1` [Compound No. 107, 2-(Methylamino)-2-oxoethyl 4-[3-(4-chlorophenyl)prop-2-yn-1-yl]piperidine-1-carboxylate], 101 to 103 °C. Regarding `CNC(=O)COC(=O)N1CCC(CCCc2ccc(Cl)cc2)CC1` [Compound No. 83, 2-(Methylamino)-2-oxoethyl 4-[3-(4-chlorophenyl)propyl]piperidine-1-carboxylate], the melting point fell in the range of 118 to 120 °C. With `CNC(=O)COC(=O)N1CCC(Cc2ccc3ccccc3c2)CC1` [Compound No. 43, 2-(Methylamino)-2-oxoethyl 4-(naphth-2-ylmethyl)piperidine-1-carboxylate], the melting point was 150 to 152 °C.

For `NC(=O)COC(=O)N1CCC(Cn2ccc3ccccc32)CC1` [compound 47, 2-amino-2-oxoethyl 4-(1H-indol-1-ylmethyl)piperidine-1-carboxylate], the melting point was in the range of 158 to 159 °C.
